Values of other authors in US20260101892A1, “METHOD TO INHIBIT PROLIFERATION OF A PHYTOPATHOGEN ON PLANTS AND COMPOSITIONS USED FOR THIS PURPOSE” (CYSBIO APS, priority 2022, published 2026).
Like-named read-outs stand apart in the source and are kept apart here. Marks after values point to notes of the source that are not given here.

Tests used:
E. coli [1] = conditions: cited from earlier work; for Planktonic growth A600/min (×10^−3): LB medium, 30° C., 24 hours; for Planktonic growth Reduction (%): (compound − control) × 100 / control, negative = reduction; for biocidal effect: at the concentrations tested by Catto et al. (0.183-1830 μM)
E. coli [2] = conditions: cited from earlier work; for Cell adhesion Reduction (%): (compound − control) × 100 / control, negative = reduction; for anti-biofilm activity (cell adhesion): at the concentrations tested by Catto et al. (0.183-1830 μM); for concentrations at which anti-biofilm efficacy is shown: Catto et al., table 1

| Structure (SMILES) | Planktonic growth A600/min (×10^−3) (E. coli [1]; 0.183 μM) | Planktonic growth Reduction (%) (E. coli [1]; 0.183 μM) | Planktonic growth A600/min (×10^−3) (E. coli [1]; 1.83 μM) | Planktonic growth Reduction (%) (E. coli [1]; 1.83 μM) | Planktonic growth A600/min (×10^−3) (E. coli [1]; 18.3 μM) | Planktonic growth Reduction (%) (E. coli [1]; 18.3 μM) | Planktonic growth A600/min (×10^−3) (E. coli [1]; 183 μM) | Planktonic growth Reduction (%) (E. coli [1]; 183 μM) | Planktonic growth A600/min (×10^−3) (E. coli [1]; 1830 μM) | Planktonic growth Reduction (%) (E. coli [1]; 1830 μM) | Cell adhesion Reduction (%) (E. coli [2]; 0.183 μM) | Cell adhesion N. adhered cells (×10^7) (E. coli [2]; 0.183 μM) | Cell adhesion Reduction (%) (E. coli [2]; 1.83 μM) | Cell adhesion N. adhered cells (×10^7) (E. coli [2]; 1.83 μM) | Cell adhesion Reduction (%) (E. coli [2]; 18.3 μM) | Cell adhesion N. adhered cells (×10^7) (E. coli [2]; 18.3 μM) | Cell adhesion Reduction (%) (E. coli [2]; 183 μM) | Cell adhesion N. adhered cells (×10^7) (E. coli [2]; 183 μM) | Cell adhesion Reduction (%) (E. coli [2]; 1830 μM) | Cell adhesion N. adhered cells (×10^7) (E. coli [2]; 1830 μM) | further results |
| --- | --- | --- | --- | --- | --- | --- | --- | --- | --- | --- | --- | --- | --- | --- | --- | --- | --- | --- | --- | --- | --- |
| O=C(O)/C=C\c1ccc(OS(=O)(=O)O)cc1 [Cis zosteric acid, cis-zosteric acid] | 1.31 ± 0.13^a A600/min (×10^−3) | 2.28 | 1.31 ± 0.01^a A600/min (×10^−3) | 1.66 | 1.31 ± 0.03^a A600/min (×10^−3) | 2.24 | 1.24 ± 0.03^a A600/min (×10^−3) | −3.39 | 1.22 ± 0.03^a A600/min (×10^−3) | −4.98 | 98.02 | 3.79 ± 0.61^c ×10^7 | 92.49 | 3.69 ± 0.41^c ×10^7 | 84.50 | 3.54 ± 0.20^c ×10^7 | 9.90 | 2.11 ± 0.14^bd ×10^7 | 124.16 | 4.30 ± 1.01^c ×10^7 | biocidal effect (E. coli [1]): no biocidal nor anti-biofilm activity; anti-biofilm activity (cell adhesion) (E. coli [2]): no biocidal nor anti-biofilm activity; anti-biofilm activity (cell adhesion) (E. coli [2]; listed as cis-isomer of zosteric acid): no activity |
| O=C(O)/C=C\c1ccccc1 [Cis-cinnamic acid, cis-cinnamic acid] | 1.32 ± 0.04^ab A600/min (×10^−3) | 2.71 | 1.28 ± 0.07^ab A600/min (×10^−3) | −0.56 | 1.30 ± 0.03^ab A600/min (×10^−3) | 1.27 | 1.24 ± 0.05^a A600/min (×10^−3) | −3.17 | 0.88 ± 0.02^c A600/min (×10^−3) | −31.64 | 28.52 | 2.46 ± 0.17^b ×10^7 | 23.00 | 2.36 ± 0.26^b ×10^7 | −29.61 | 1.35 ± 0.28^b ×10^7 | 164.82 | 5.08 ± 0.53^c ×10^7 | 183.29 | 5.43 ± 0.76^c ×10^7 | anti-biofilm activity (cell adhesion) (E. coli [2]): promotes biofilm formation at all concentrations tested |
| O=C(O)/C=C\c1ccc(O)cc1 [Cis-coumaric acid, cis-coumaric acid] | 1.29 ± 0.07^a A600/min (×10^−3) | 0.30 | 1.27 ± 0.05^a A600/min (×10^−3) | −0.88 | 1.27 ± 0.04^a A600/min (×10^−3) | −1.26 | 1.28 ± 0.06^a A600/min (×10^−3) | −0.16 | 1.25 ± 0.02^a A600/min (×10^−3) | −2.25 | −27.34 | 1.39 ± 0.15^abc ×10^7 | −14.39 | 1.64 ± 0.11^bc ×10^7 | −4.30 | 1.83 ± 0.14^bc ×10^7 | −15.26 | 1.62 ± 0.19^bc ×10^7 | 184.36 | 5.45 ± 1.00^e ×10^7 | biocidal effect (E. coli [1]): no biocidal activity; anti-biofilm activity (cell adhesion) (E. coli [2]): strongly reduced anti-biofilm activity |
| O=C(O)/C=C/c1ccc(OS(=O)(=O)O)cc1 [Trans zosteric acid, trans-zosteric acid] | 1.32 ± 0.06^a A600/min (×10^−3) | 2.86 | 1.31 ± 0.04^a A600/min (×10^−3) | 1.76 | 1.29 ± 0.04^a A600/min (×10^−3) | 0.11 | 1.30 ± 0.04^a A600/min (×10^−3) | 1.07 | 1.30 ± 0.04^a A600/min (×10^−3) | 1.21 | 44.59 | 2.77 ± 0.17^d ×10^7 | −19.76 | 1.54 ± 0.29^c ×10^7 | −19.34 | 1.55 ± 0.19^c ×10^7 | −27.67 | 1.39 ± 0.13^c ×10^7 | −70.56 | 0.56 ± 0.12^a ×10^7 | biocidal effect (E. coli [1]): no biocidal effect; concentrations at which anti-biofilm efficacy is shown (E. coli [2]): > 1.83 µM; anti-biofilm activity (cell adhesion) (E. coli [2]; listed as trans-isomer of zosteric acid): highly effective |
| O=C(O)/C=C/c1ccccc1 [Trans-cinnamic acid, trans-cinnamic acid] | 1.24 ± 0.04^abcd A600/min (×10^−3) | −3.32 | 1.22 ± 0.01^abcdf A600/min (×10^−3) | −4.74 | 1.19 ± 0.04^bcdef A600/min (×10^−3) | −7.58 | 1.14 ± 0.05^def A600/min (×10^−3) | −11.37 | 0.83 ± 0.02^h A600/min (×10^−3) | −35.10 | −34.95 | 1.25 ± 0.43^cdef ×10^7 | −38.77 | 1.17 ± 0.17^cdf ×10^7 | −7.37 | 1.78 ± 0.10^bcef ×10^7 | −25.03 | 1.44 ± 0.15^bcdef ×10^7 | −31.11 | 1.32 ± 0.28^cdef ×10^7 | concentrations at which anti-biofilm efficacy is shown (E. coli [2]): > 0.183 µM |
| O=C(O)/C=C/c1ccc(O)cc1 [Trans-coumaric acid, trans-coumaric acid] | 1.31 ± 0.03ab A600/min (×10^−3) | 2.06 | 1.26 ± 0.04abc A600/min (×10^−3) | −1.72 | 1.23 ± 0.02abc A600/min (×10^−3) | −3.99 | 1.23 ± 0.06abc A600/min (×10^−3) | −3.87 | 0.97 ± 0.04e A600/min (×10^−3) | −24.17 | 19.37 | 2.29 ± 0.16b ×10^7 | −46.05 | 1.03 ± 0.14ce ×10^7 | −25.80 | 1.42 ± 0.24de ×10^7 | −22.36 | 1.49 ± 0.14de ×10^7 | −36.38 | 1.22 ± 0.27cde ×10^7 | biocidal effect (E. coli [1]): displays both biocidal and antibiofilm effect; anti-biofilm activity (cell adhesion) (E. coli [2]): displays both biocidal and antibiofilm effect |
